Consider 2 molecules from patent US20040057943A1, “Probiotic strains, a process for the selection of them, compositions thereof, and their use” (priority 2002, published 2004).

For the assay, the system named is Salmonella typhmurium and Escherichia coli. Description: Production of antimicrobial metabolites, agar well diffusion assay. The note with it: pH 4.5; data not shown. Format: cell-based. As to the method:
The probiotic strains of this invention were assessed for their capability to produce antimicrobial metabolites using an agar well diffusion assay. MRS agar plates containing 10^6 cfu/ml of different pathogenic bacteria strain (Salmonella typhmurium and Escherichia coli) were prepared. Wells, with a diameter of 5 mm, where then cut in the agar using a sterile cork-borer. Then, 50 μl of a 2 fold concentrate supernatant of each probiotic strain culture were added to the wells and allowed to diffuse into the agar during a 2 hours preincubation period at 4° C., followed by aerobic incubation of the plates at 37° C. for 16-18 hours. The antimicrobial activity of each supernatant was considered high if the diameter of the inhibition hallo for both pathogenic bacteria strains was >12, moderate between 8 and 12, and slight <8 (FIG. 11)
Moreover, it was also tested if the antimicrobial activity of the supernatants was due to a antimicrobial substance or to the production of metabolic acids. […] It was also tested the antimicrobial capabilities of supernatants obtained from bacterial cultures using glucose or lactose as a carbohydrate source.

On to `CC(=O)O` [acetic], for which the “Inhibitory effect of a dilution of metabolic acid on growth of Salmonella or E. coli” value is reported as “None of these situations inhibited the growth”.

Turning to `CCCC(=O)O` [butyric, butyric acid], the “Inhibitory effect of a dilution of metabolic acid on growth of Salmonella or E. coli” value is “None of these situations inhibited the growth”.
